According to patent US11731962B2, “LpxC inhibitor and methods of making” (priority 2020, dated 2023):
≈ marks a conversion by molar mass, not a printed value. Read-outs that look alike come from different tables or passages of the source.

Key:
Format in all cases: cell-based
[1] = test system: gram-negative and gram-positive bacterial strains; experiment: Bacterial susceptibility testing, whole panel; conditions: summary of Table 1
Method: (§1) Minimal inhibitory concentrations (MIC) against a variety of gram-negative and gram-positive bacterial strains were determined by the broth microdilution method in accordance with the Clinical and Laboratory Standards Institute (CLSI) guidelines. In brief, organism suspensions were adjusted to a 0.5 McFarland standard to yield a final inoculum between 3×10^5 and 7×10^5 colony-forming units (CFU)/mL. Drug dilutions and inocula were made in sterile, cation adjusted Mueller-Hinton Broth (Beckton Dickinson). An inoculum volume of 100 μL was added to wells containing 100 μL of broth with 2-fold serial dilutions of drug. All inoculated microdilution trays were incubated in ambient air at 35° C. for 18-24 h. Following incubation, the lowest concentration of the drug that prevented visible growth (OD600 nm<0.05) was recorded as the MIC. Performance of the assay was monitored by the use of laboratory quality-control strains and levofloxacin, a compound with a defined MIC spectrum, in accordance with CLSI guidelines.

C. sordellii ATCC 9714 = experiment: Bacterial susceptibility testing, broth microdilution MIC; conditions: Paraclostridium sordellii, ATCC9714, 35° C., 18-24 h
Method: as §1

E. faecalis ATCC 29212 = experiment: as above; conditions: Enterococcus faecalis, ATCC29212, 35° C., 18-24 h
Method: as §1

[2] = test system: N. cyriacigeorgica complex NBQAS 3295; experiment: as above
Method: as §1

S. aureus ATCC 29213 = experiment: as above; conditions: for MIC: Staphylococcus aureus, ATCC29213, S. aureus ATCC 29213, broth microdilution, 35° C., 18-24 h
Method: as §1

[3] = test system: B. thuringiensis ATCC 35646; experiment: as above; conditions: Bacillus thuringiensis, ATCC35646, 35° C., 18-24 h
Method: as §1

S. pyogenes ATCC 12384 = experiment: as above; conditions: Streptococcus pyogenes, ATCC12384, 35° C., 18-24 h
Method: as §1

P. anaerobius DSM 20357 = experiment: as above; conditions: Peptostreptococcus anaerobius, DSM20357, 35° C., 18-24 h
Method: as §1

P. acnes ATCC 6919 = experiment: as above; conditions: Cutibacterium acnes, ATCC6919, 35° C., 18-24 h
Method: as §1

L. rhamnosus ATCC 53103 = experiment: as above; conditions: Lacticaseibacillus rhamnosus, ATCC53103, 35° C., 18-24 h
Method: as §1

B. breve HM 412 = experiment: as above; conditions: Bifidobacterium breve, HM412, 35° C., 18-24 h
Method: as §1

[4] = test system: L. monocytogenes ATCC 7644; experiment: as above; conditions: Listeria monocytogenes, ATCC7644, 35° C., 18-24 h
Method: as §1

S. pneumoniae ATCC 49619 = experiment: as above; conditions: Streptococcus pneumoniae, ATCC49619, 35° C., 18-24 h
Method: as §1

C. jeikeium NCTC 11914 = experiment: as above; conditions: Corynebacterium jeikeium, NCTC11914, 35° C., 18-24 h
Method: as §1

[5] = test system: S. epidermidis ATCC 35984; experiment: as above; conditions: Staphylococcus epidermidis, ATCC35984, 35° C., 18-24 h
Method: as §1

E. coli ATCC 25922 = experiment: as above; conditions: Escherichia coli, ATCC25922
Method: as §1

C. difficile ATCC 700057 = experiment: as above; conditions: Clostridioides difficile, ATCC700057, 35° C., 18-24 h
Method: as §1

K. pneumoniae ATCC 13883 = experiment: as above; conditions: Klebsiella pneumoniae, ATCC13883
Method: as §1

[6] = E. coli ATCC 25922, broth microdilution, 35° C., 18-24 h, read-out: MIC

## N#CC1CN(C[C@@H](Cc2ncnc(O)c2O)c2ccc(C#Cc3ccc(CN4CCOCC4)cc3)cc2)C1 [Compound A, (S)-1-(3-(5,6-dihydroxypyrimidin-4-yl)-2-(4-((4-(morpholinomethyl)phenyl)ethynyl)phenyl)propyl)azetidine-3-carbonitrile]
[1]
  selectivity for gram-negative bacteria over gram-positive bacteria: high selectivity
C. sordellii ATCC 9714
  MIC: > 64 µg/mL
E. faecalis ATCC 29212
  MIC: > 64 µg/mL
[2]
  MIC: > 64 µg/mL
S. aureus ATCC 29213
  MIC: > 64 µg/mL
S. aureus ATCC 29213; gram-positive bacterial cell lines, such as S. aureus
  inhibition of gram-positive bacterial cell lines: does not inhibit
[3]
  MIC: > 64 µg/mL
S. pyogenes ATCC 12384
  MIC: > 64 µg/mL
P. anaerobius DSM 20357
  MIC: > 64 µg/mL
P. acnes ATCC 6919
  MIC: > 64 µg/mL
L. rhamnosus ATCC 53103
  MIC: > 64 µg/mL
B. breve HM 412
  MIC: > 64 µg/mL
[4]
  MIC: > 64 µg/mL
S. pneumoniae ATCC 49619
  MIC: > 64 µg/mL
C. jeikeium NCTC 11914
  MIC: > 64 µg/mL
[5]
  MIC: > 64 µg/mL
E. coli ATCC 25922; [6]
  MIC: 0.5 µg/mL (≈ 0.981 µM)
E. coli ATCC 25922; E. coli cell lines, strain not named, read-out: MIC values
  MIC: < 1 µg/mL
C. difficile ATCC 700057
  MIC: > 64 µg/mL
K. pneumoniae ATCC 13883; K. pneumoniae ATCC 13883, broth microdilution, 35° C., 18-24 h, read-out: MIC
  MIC: 0.5 µg/mL (≈ 0.981 µM)
K. pneumoniae ATCC 13883; K. pneumoniae cell lines, strain not named, read-out: MIC values
  MIC: < 1 µg/mL

## C[C@H]1COc2c(N3CCN(C)CC3)c(F)cc3c(=O)c(C(=O)O)cn1c23 [Levofloxacin]
C. sordellii ATCC 9714
  MIC: 1 µg/mL (≈ 2.77 µM)
E. faecalis ATCC 29212
  MIC: 1 µg/mL (≈ 2.77 µM)
[2]
  MIC: 8 µg/mL (≈ 22.1 µM)
S. aureus ATCC 29213
  MIC: 0.25 µg/mL (≈ 0.692 µM)
[3]
  MIC: 0.125 µg/mL (≈ 0.346 µM)
S. pyogenes ATCC 12384
  MIC: 0.5 µg/mL (≈ 1.38 µM)
P. anaerobius DSM 20357
  MIC: 0.5 µg/mL (≈ 1.38 µM)
P. acnes ATCC 6919
  MIC: 0.5 µg/mL (≈ 1.38 µM)
L. rhamnosus ATCC 53103
  MIC: 1 µg/mL (≈ 2.77 µM)
B. breve HM 412
  MIC: 4 µg/mL (≈ 11.1 µM)
[4]
  MIC: 1 µg/mL (≈ 2.77 µM)
S. pneumoniae ATCC 49619
  MIC: 1 µg/mL (≈ 2.77 µM)
C. jeikeium NCTC 11914
  MIC: 1 µg/mL (≈ 2.77 µM)
[5]
  MIC: 0.125 µg/mL (≈ 0.346 µM)
E. coli ATCC 25922; [6]
  MIC: 0.03 µg/mL (≈ 0.083 µM)
C. difficile ATCC 700057
  MIC: 4 µg/mL (≈ 11.1 µM)

## C[C@@H](O)[C@H]1C(=O)N2C(C(=O)O)=C(S[C@@H]3CN[C@H](C(=O)N(C)C)C3)[C@H](C)[C@H]12 [Meropenem]
[1]
  activity against gram-positive bacteria: do have activity against various strains of gram-positive bacteria
C. sordellii ATCC 9714
  MIC: 0.015 µg/mL (≈ 0.0391 µM)
E. faecalis ATCC 29212
  MIC: > 1 µg/mL
[2]
  MIC: > 1 µg/mL
[3]
  MIC: 0.06 µg/mL (≈ 0.156 µM)
S. pyogenes ATCC 12384
  MIC: 0.008 µg/mL (≈ 0.0209 µM)
P. anaerobius DSM 20357
  MIC: > 1 µg/mL
P. acnes ATCC 6919
  MIC: 0.06 µg/mL (≈ 0.156 µM)
L. rhamnosus ATCC 53103
  MIC: > 1 µg/mL
B. breve HM 412
  MIC: > 1 µg/mL
S. pneumoniae ATCC 49619
  MIC: 0.06 µg/mL (≈ 0.156 µM)
C. jeikeium NCTC 11914
  MIC: > 1 µg/mL
[5]
  MIC: > 1 µg/mL
E. coli ATCC 25922; [6]
  MIC: 0.03 µg/mL (≈ 0.0782 µM)
C. difficile ATCC 700057
  MIC: 1 µg/mL (≈ 2.61 µM)
